Measured values published in ChEMBL document CHEMBL3044553, “Amino steroids as antimalarial agents” (2008).
Values after ≈ are worked out from the molar mass of the structure shown.

Test system: Plasmodium falciparum
Test: Antimalarial activity against chloroquine-sensitive Plasmodium falciparum NF54 assessed as inhibition of maturation of rings into schizonts stage
Format: functional

MIC [µg/mL] | Structure (SMILES)
50 (≈ 93 µM) | CC(=O)O[C@@H]1CC[C@@]2(C)[C@H](CC[C@@H]3[C@@H]2C[C@H](OC(C)=O)[C@]2(C)[C@@H]([C@H](C)CCNCc4ccccc4)CC[C@@H]32)C1
2 (≈ 3.82 µM) | CC(=O)O[C@@H]1CC[C@@]2(C)[C@H](CC[C@@H]3[C@@H]2C[C@H](OC(C)=O)[C@]2(C)[C@@H]([C@H](C)CNCc4ccccc4)CC[C@@H]32)C1
0.5 (≈ 0.766 µM) | CC(=O)O[C@@H]1CC[C@@]2(C)[C@H](CC[C@@H]3[C@@H]2C[C@H](OC(C)=O)[C@]2(C)[C@@H]([C@H](C)CNCCCNc4ccnc5cc(Cl)ccc45)CC[C@@H]32)C1
10 (≈ 21 µM) | CC(=O)O[C@@H]1CC[C@@]2(C)[C@H](CC[C@@H]3[C@@H]2C[C@H](OC(C)=O)[C@]2(C)[C@@H]([C@H](C)CNC(C)C)CC[C@@H]32)C1
10 (≈ 42.4 µM) | NCCCNc1ccnc2cc(Cl)ccc12
> 10 | CCCCNC[C@@H](C)[C@H]1CC[C@H]2[C@@H]3CC[C@@H]4C[C@H](OC(C)=O)CC[C@]4(C)[C@H]3C[C@H](OC(C)=O)[C@]12C
> 50 | CCCCNCC[C@@H](C)[C@H]1CC[C@H]2[C@@H]3CC[C@@H]4C[C@H](OC(C)=O)CC[C@]4(C)[C@H]3C[C@H](OC(C)=O)[C@]12C
> 50 | CC(=O)O[C@@H]1CC[C@@]2(C)[C@H](CC[C@@H]3[C@@H]2C[C@H](OC(C)=O)[C@]2(C)[C@@H]([C@H](C)CCNC(C)C)CC[C@@H]32)C1
0.04 (≈ 0.125 µM) | CCN(CC)CCCC(C)Nc1ccnc2cc(Cl)ccc12 (stereo unspecified) [CHLOROQUINE]
2 (≈ 8.01 µM) | NCCCCNc1ccnc2cc(Cl)ccc12
1 (≈ 1.5 µM) | CC(=O)O[C@@H]1CC[C@@]2(C)[C@H](CC[C@@H]3[C@@H]2C[C@H](OC(C)=O)[C@]2(C)[C@@H]([C@H](C)CNCCCCNc4ccnc5cc(Cl)ccc45)CC[C@@H]32)C1
